This note sets out measurements from US20230045421A1 (priority 2018, published 2023).

pEC50: −log10 of the molar value.

The subject of one experiment is HBV rcDNA. Briefly: HepDE19 assay with bDNA quantitation of HBV rcDNA. The experiment is classed as cell-based, hepatitis B virus. Conditions: HepDE19 assay, inhibition of formation of rcDNA; read-out: DE-19bDNA EC50. Summed up: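 HepDE19 cells (HepG2-derived, Tet-regulated HBV replication) were deprived of tetracycline and then exposed to compounds for 7 days at 37 °C in 0.5% DMSO, 8-point titration from 25 μM. rcDNA was quantified by bDNA and EC50/EC90 came from 4-parameter fits. CC50 was measured by CellTiter-Glo ATP content on replicate plates after 4 days.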
With `CC(c1c[nH]c(=O)c2ccccc12)N(CC1CCOC1)C(=O)Nc1ccc(F)c(Cl)c1` (centres unmarked) [Compound 175], the pEC50 was 6.07.

The experiment is the same for the next values; noted with them: Hepatitis B virus, HepDE19, HepDE19 assay, inhibition of formation of rcDNA; read-out: DE-19bDNA EC50.
As to `C[C@H](c1c[nH]c(=O)c2ccccc12)N(C)C(=O)Nc1ccc(F)c(F)c1` [Compound 92, (R)-3-(3,4-Difluorophenyl)-1-methyl-1-(1-(1-oxo-1,2-dihydroisoquinolin-4-yl)ethyl)urea], the pEC50 is 6.64.

Turning to `C[C@H](c1c[nH]c(=O)c2ccccc12)N(CC(F)F)C(=O)Nc1ccc(F)c(Cl)c1` [Compound 96, (R)-3-(3-Chloro-4-fluorophenyl)-1-(2,2-difluoroethyl)-1-(1-(1-oxo-1,2-dihydroisoquinolin-4-yl)ethyl)urea], the pEC50 is 6.66.

`Cc1cc(NC(=O)N(CC(F)F)[C@H](C)c2c[nH]c(=O)c3ccccc23)ccc1F` [Compound 97, (R)-3-(3-Methyl-4-fluorophenyl)-1-(2,2-difluoroethyl)-1-(1-(1-oxo-1,2-dihydroisoquinolin-4-yl)ethyl)urea]: the pEC50 is 6.96.

Consider `[2H]C([2H])([2H])C([2H])([2H])N(C(=O)Nc1ccc(F)c(Cl)c1)[C@H](C)c1c[nH]c(=O)c2ccccc12` [Compound 99, (R)-3-(3-Chloro-4-fluorophenyl)-1-(ethyl-d5)-1-(1-(1-oxo-1,2-dihydroisoquinolin-4-yl)ethyl)urea], for which the negative logarithm of the EC50 (pEC50) is 7.52. On the same count and under the same terms, the figure for `COc1ncc([C@@H](C)N(CC(F)(F)F)C(=O)Nc2ccc(F)c(Cl)c2)c2ccccc12` [Compound 101, (R)-3-(3-Chloro-4-fluorophenyl)-1-(1-(1-methoxyisoquinolin-4-yl)ethyl)-1-(2,2,2-trifluoroethyl)urea] is 6.38; for `CC(c1c[nH]c(=O)c2cnccc12)N(C)C(=O)Nc1ccc(F)c(Cl)c1` (centres unmarked) [Compound 111, 3-(3-Chloro-4-fluorophenyl)-1-methyl-1-(1-(1-oxo-1,2-dihydro-2,7-naphthyridin-4-yl)ethyl)urea] it is 6.60. In the case of `CNC(=O)CN(C(=O)Nc1ccc(F)c(Cl)c1)C(C)c1c[nH]c(=O)c2ccccc12` (centres unmarked) [Compound 116, 2-(3-(3-Chloro-4-fluorophenyl)-1-(1-(1-oxo-1,2-dihydroisoquinolin-4-yl)ethyl)ureido)-N-methylacetamide], the pEC50 was 6.00. Take `CC(c1c[nH]c(=O)c2ccncc12)N(C)C(=O)Nc1ccc(F)c(Cl)c1` (centres unmarked) [Compound 127, 3-(3-chloro-4-fluorophenyl)-1-methyl-1-(1-(1-oxo-1,2-dihydro-2,6-naphthyridin-4-yl)ethyl)urea]: the pEC50 is 6.00.

In the case of `CC(c1c[nH]c(=O)c2ncccc12)N(C)C(=O)Nc1ccc(F)c(Cl)c1` (centres unmarked) [Compound 153, 3-(3-chloro-4-fluorophenyl)-1-methyl-1-(1-(8-oxo-7,8-dihydro-1,7-naphthyridin-5-yl)ethyl)urea], the pEC50 was 6.06. Regarding `CC(c1c[nH]c(=O)c2cnccc12)N(CCCO)C(=O)Nc1ccc(F)c(Cl)c1` (centres unmarked) [Compound 159, 3-(3-Chloro-4-fluorophenyl)-1-(3-hydroxypropyl)-1-(1-(1-oxo-1,2-dihydro-2,7-naphthyridin-4-yl)ethyl)urea], the pEC50 is 7.00. In the case of `CC(c1c[nH]c(=O)c2ccccc12)N(CC1CCOC1)C(=O)Nc1ccc(F)c(Cl)c1` (centres unmarked) [Compound 165], the pEC50 was 5.85.

The experiment is the same for the next values; noted with them: Hepatitis B virus, HepDE19, HepDE19 assay, inhibition of formation of relaxed circular DNA (rcDNA), bDNA quantitation; read-out: DE-19bDNA EC50.
For `CC(c1c[nH]c(=O)c2c(F)cc(F)cc12)N(CCCO)C(=O)Nc1ccc(F)c(Cl)c1` (centres unmarked) [Compound 373, 3-(3-Chloro-4-fluorophenyl)-1-(1-(6,8-difluoro-1-oxo-1,2-dihydroisoquinolin-4-yl)ethyl)-1-(3-hydroxypropyl)urea], the pEC50 was 5.59.

Still in this experiment, the particulars now being: Hepatitis B virus, HepDE19, read-out: DE-19bDNA EC50 (μM), HepDE19 assay, inhibition of formation of rcDNA.
For `C[C@H](c1c[nH]c(=O)c2ccccc12)N(C)C(=O)Nc1cccc(F)c1` [Compound 93, (R)-3-(3-Fluorophenyl)-1-methyl-1-(1-(1-oxo-1,2-dihydroisoquinolin-4-yl)ethyl)urea], the EC50 stood at 0.52 µM. In the case of `C[C@H](c1c[nH]c(=O)c2ccccc12)N(C)C(=O)Nc1ccnc(Cl)c1` [Compound 94, (R)-3-(2-Chloropyridin-4-yl)-1-methyl-1-(1-(1-oxo-1,2-dihydroisoquinolin-4-yl)ethyl)urea], the EC50 turned out to be 1 µM. Consider `C[C@H](c1c[nH]c(=O)c2ccccc12)N(C)C(=O)Nc1ccc(F)c(C#N)c1` [Compound 98, (R)-3-(3-Cyano-4-fluorophenyl)-1-methyl-1-(1-(1-oxo-1,2-dihydroisoquinolin-4-yl)ethyl)urea], for which the EC50 turned out to be 0.16 µM.

Staying with this experiment, now noted: Hepatitis B virus, HepDE19, read-out: DE-19bDNA EC50 (μM), HepDE19 assay, inhibition of formation of relaxed circular DNA (rcDNA), bDNA quantitation.
For the compound `C[C@H](c1c[nH]c(=O)c2ccccc12)N(C)C(=O)Nc1ccc(Cl)cc1` [Compound 293, (R)-3-(4-Chlorophenyl)-1-methyl-1-(1-(1-oxo-1,2-dihydroisoquinolin-4-yl)ethyl)urea], the EC50 amounted to 0.34 µM. Same read-out and setting: the figure for `C[C@H](c1c[nH]c(=O)c2ccccc12)N(C)C(=O)Nc1ccc(Br)cc1` [Compound 294, (R)-3-(4-Bromophenyl)-1-methyl-1-(1-(1-oxo-1,2-dihydroisoquinolin-4-yl)ethyl)urea] is 0.87 µM.

In the case of `CC(NC(=O)Nc1ccc(F)c(Cl)c1)c1c[nH]c(=O)c2cc(F)c(F)cc12` (centres unmarked) [Compound 480, 1-(3-Chloro-4-fluorophenyl)-3-(1-(6,7-difluoro-1-oxo-1,2-dihydroisoquinolin-4-yl)ethyl)urea], the EC50 worked out at 0.85 µM.

`CC(NC(=O)Nc1ccc(F)c(C#N)c1)c1c[nH]c(=O)c2cc(F)c(F)cc12` (centres unmarked) [Compound 495, 1-(3-Cyano-4-fluorophenyl)-3-(1-(6,7-difluoro-1-oxo-1,2-dihydroisoquinolin-4-yl)ethyl)urea]: the EC50 came to 0.33 µM.
